Legend:
[1] = biological target: T1, CDK2/Cyclin E1 (Homo sapiens, UniProt P24941); assay: CDK2/Cyclin E1 Caliper LabChip EZ Reader mobility shift assay; type: biochemical; conditions: 2.5 nM CDK2/Cyclin E1, 100 μM ATP, 1.5 μM fluorescent peptide, 30 min preincubation; read-out: Caliper Assay (CDK2/CCNE1): IC50
T1 construct: purchased Eurofins 14-475
Method: Example A1: CDK2/Cyclin E1 Caliper Assay
Inhibition of CDK2/Cyclin E1 activity in the presence of compounds of the present disclosure was evaluated using a Caliper LabChip® EZ Reader mobility shift assay. In the assay, CDK2/Cyclin E1 (Eurofins, 14-475) catalyzed the phosphorylation of a fluorescently tagged peptide 5-FAM-QSPKKG-CONH2 (PerkinElmer, FL Peptide 18) which induced a difference in capillary electrophoresis mobility. The peptide substrate and product were measured, and the conversion ratio was used to determine the inhibition (as % activity and IC50 values) of CDK2/Cyclin E1. Reactions contained 50 mM HEPES pH 7.5, 10 mM MgCl2, 1 mM EDTA, 2 mM DTT, 0.01% Brij35, 0.5 mg/mL BSA, 0.1% DMSO, 2.5 nM CDK2/Cyclin E1, 100 μM ATP, and 1.5 μM fluorescent peptide substrate.
Dose titrations of inhibitors in 100% DMSO were combined with 3.25 nM CDK2/Cyclin E1 and 130 μM of ATP in reaction buffer. The mixtures were incubated for 30 minutes before the addition of fluorescent peptide substrate to initiate the kinase reaction. The final conditions were 2.5 nM CDK2/Cyclin E1, 100 μM ATP, and 1.5 μM fluorescent peptide. The reactions were stopped after 100 minutes with the addition of EDTA (400 mM final EDTA concentration). The stopped reactions were analyzed on a Caliper LabChip® EZ Reader II. The conversion ratios were normalized to yield % activity, plotted against compound concentration, and fit to a four-parameter equation to determine the IC50 for each compound.

[2] = tested on: Kuramochi cells labeled with mApple-H2B; assay: IncuCyte cell proliferation assay; type: cell-based; conditions: Kuramochi RB-WT cells, 72 hours, cell count normalized to DMSO
Method: Example A3: IncuCyte® Cell Proliferation Assay
IncuCyte® assay was used to measure the effect of disclosed compounds on cell proliferation. Fluorescent microscopy images of cells were taken immediately after compound treatment and 72 hours later. Image analysis software was used to obtain cell counts as a function of compound concentration. Kuramochi cells labeled with mApple-H2B were seeded on 384-well assay-ready plates. Plates were placed in an IncuCyte® (Sartorius) and scanned at 0 and 72 hours. IncuCyte® software was used to count the number of fluorescent nuclei in each well. The fold change in cell count from 0 to 72 hours in wells treated with increasing compounds concentrations (10 pts, 1/2 log dilution, 20 μM top concentration) was normalized to DMSO control wells. The normalized cell counts were fit with dose response curves and a GI50 was calculated.

SMILES | IC50 [1] | IC50 [2]
O=C(c1cc(F)n[nH]1)N1CC(c2nnc(C(F)(F)c3ccc(Cl)c(Cl)c3)o2)C2(CCOCC2)C1 (stereo not drawn) [Compound I-1] | > 10 µM | > 20 µM
O=C(c1cncs1)N1CC(c2nnc(C(F)(F)c3ccc(Cl)c(Cl)c3)o2)C2(CCNCC2)C1 (stereo not drawn) [Compound I-9] | > 10 µM | > 20 µM
O=C(c1cncs1)N1CC(c2nnc(C(F)(F)c3ccc(Cl)c(Cl)c3)o2)C2(CCN(C(=O)[C@H]3CC3(F)F)CC2)C1 (stereo partly drawn) [Compound I-2, (4-(5-((3,4-dichlorophenyl)difluoromethyl)-1,3,4-oxadiazol-2-yl)-2-(thiazole-5-carbonyl)-2,8-diazaspiro[4.5]decan-8-yl)((R)-2,2-difluorocyclopropyl)methanone] | > 10 µM | > 20 µM
O=C(c1cncs1)N1CC(c2nnc(C(F)(F)c3ccc(Cl)c(Cl)c3)o2)C2(CCC2)C1 (stereo not drawn) [Compound I-11, (8-(5-((3,4-dichlorophenyl)difluoromethyl)-1,3,4-oxadiazol-2-yl)-6-azaspiro[3.4]octan-6-yl)(thiazol-5-yl)methanone] | > 10 µM | > 20 µM
O=C(c1cnccn1)N1CC(c2nnc(C(F)(F)c3ccc(Cl)c(Cl)c3)o2)C2(CCOCC2)C1 (stereo not drawn) [Compound I-10] | > 10 µM | > 20 µM
CC(C)(C)OC(=O)N1CCC2(CC1)CN(C(=O)c1cncs1)CC2c1nnc(C(F)(F)c2ccc(Cl)c(Cl)c2)o1 (stereo not drawn) [Compound I-14, tert-butyl 4-(5-((3,4-dichlorophenyl)difluoromethyl)-1,3,4-oxadiazol-2-yl)-2-(thiazole-5-carbonyl)-2,8-diazaspiro[4.5]decane-8-carboxylate] | > 10 µM | 5 to 20 µM
O=C(c1cncs1)N1CC(c2nnc(C(F)(F)c3ccc(Cl)c(Cl)c3)o2)C2(CCOCC2)C1 (stereo not drawn) [Compound I-12, (4-(5-((3,4-dichlorophenyl)difluoromethyl)-1,3,4-oxadiazol-2-yl)-8-oxa-2-azaspiro[4.5]decan-2-yl)(thiazol-5-yl)methanone] | > 10 µM | > 20 µM
COC[C@H]1CCCN(C(=O)[C@@H](NC(=O)[C@@H]2CN(C(=O)c3cncs3)CC23CN([S+]([O-])C(C)(C)C)C3)[C@@H](C)OCC2CCCCC2)C1 (stereo partly drawn) [Compound I-17, (8S)-2-(tert-butylsulfinyl)-N-((2S,3R)-3-(cyclohexylmethoxy)-1-((S)-3-(methoxymethyl)piperidin-1-yl)-1-oxobutan-2-yl)-6-(thiazole-5-carbonyl)-2,6-diazaspiro[3.4]octane-8-carboxamide] | 1 to 10 µM | > 20 µM
O=C(c1cncs1)N1CC(c2nnc(C(F)(F)c3ccc(Cl)c(Cl)c3)o2)C2(CCS(=O)(=O)CC2)C1 (stereo not drawn) [Compound I-8, (4-(5-((3,4-dichlorophenyl)difluoromethyl)-1,3,4-oxadiazol-2-yl)-8,8-dioxido-8-thia-2-azaspiro[4.5]decan-2-yl)(thiazol-5-yl)methanone] | > 10 µM | > 20 µM
CC1(C)C[C@@H]1C(=O)N1CCC2(CC1)CN(C(=O)c1cncs1)CC2c1nnc(C(F)(F)c2ccc(Cl)c(Cl)c2)o1 (stereo partly drawn) [Compound I-15, (4-(5-((3,4-dichlorophenyl)difluoromethyl)-1,3,4-oxadiazol-2-yl)-2-(thiazole-5-carbonyl)-2,8-diazaspiro[4.5]decan-8-yl)((S)-2,2-dimethylcyclopropyl)methanone] | > 10 µM | > 20 µM
CN(C(=O)C1CC2(C1)CN(C(=O)c1cncs1)CC2c1nnc(C(F)(F)c2ccc(Cl)c(Cl)c2)o1)C1CC1 (racemic) [Compound I-16, rac-(R)—N-cyclopropyl-8-(5-((3,4-dichlorophenyl)difluoromethyl)-1,3,4-oxadiazol-2-yl)-N-methyl-6-(thiazole-5-carbonyl)-6-azaspiro[3.4]octane-2-carboxamide] | > 10 µM | > 20 µM
O=C(c1cncs1)N1CC(c2nnc(C(F)(F)c3ccc(Cl)c(Cl)c3)o2)C2(CC(C(=O)N3CCC3)C2)C1 (stereo not drawn) [Compound I-3] |  | > 20 µM
COC[C@H]1CCCN(C(=O)[C@@H](NC(=O)[C@@H]2CN(C(=O)c3cncs3)CC23CN(S(=O)(=O)C2CC2(C)C)C3)[C@@H](C)OCC2CCCCC2)C1 (stereo partly drawn) [Compound I-18] | 1 to 10 µM | 

Now from value to molecule, other results behind:

IC50 [1] | SMILES | IC50 [2]
> 10 µM | CC(=O)N1C[C@@H](C(=O)N[C@H](C(=O)N2CCOCC2)[C@@H](C)OCC2CCCCC2)C2(C1)CN(C(=O)[C@H]1CC1(C)C)C2 [Compound I-36, (S)-6-acetyl-N-((2S,3R)-3-(cyclohexylmethoxy)-1-morpholino-1-oxobutan-2-yl)-2-((S)-2,2-dimethylcyclopropane-1-carbonyl)-2,6-diazaspiro[3.4]octane-8-carboxamide] | > 20 µM
> 10 µM | CC1(C)C[C@@H]1C(=O)N1CC2(CN(C(=O)c3cnn(Cc4ccccc4)c3)CC2C#N)C1 (stereo partly drawn) [Compound I-40, 6-(1-benzyl-1H-pyrazole-4-carbonyl)-2-((S)-2,2-dimethylcyclopropane-1-carbonyl)-2,6-diazaspiro[3.4]octane-8-carbonitrile] | 
> 10 µM | C[C@@H](OCC1CCCCC1)[C@H](NC(=O)[C@H]1CCOC12CN(C(=O)[C@H]1CC1(C)C)C2)C(=O)N1CCCCC1 (single isomer, unassigned) [I-29 2nd] | > 20 µM
> 10 µM | CNC(=O)[C@@H](NC(=O)[C@@H]1CCOC12CN(C(=O)[C@H]1CC1(C)C)C2)[C@@H](C)OCC1CCCCC1 (single isomer, unassigned) [I-35 2nd] | > 20 µM
1 to 10 µM | C[C@@H](OCC1CCCCC1)[C@H](NC(=O)[C@@H]1CN(C(=O)OC(C)(C)C)CC12CN(C(=O)[C@H]1CC1(C)C)C2)C(=O)N1CCCCC1 [Compound I-38] | > 20 µM
> 10 µM | CNC(=O)[C@@H](NC(=O)[C@@H]1CN(C(C)=O)CC12CN(C(=O)[C@H]1CC1(C)C)C2)[C@@H](C)OCC1CCCCC1 [Compound I-39] | > 20 µM
> 10 µM | CCOC(=O)[C@@H]1CN(C(C)=O)CC12CN(C(C)=O)C2 [Compound I-28, ethyl (S)-2,6-diacetyl-2,6-diazaspiro[3.4]octane-8-carboxylate] | > 20 µM
> 10 µM | C[C@@H](OCC1CCCCC1)[C@H](NC(=O)[C@H]1CCOC12CN(C(=O)[C@H]1CC1(C)C)C2)C(=O)N1CCC[C@H](N)C1 (single isomer, unassigned) [I-31 2nd] | > 20 µM
> 10 µM | C[C@@H](OCC1CCCCC1)[C@H](NC(=O)C1CS(=O)(=O)CC12CN(C(=O)[C@H]1CC1(C)C)C2)C(=O)N1CCCCC1 (stereo partly drawn) [Compound I-26, N-((2S,3R)-3-(cyclohexylmethoxy)-1-oxo-1-(piperidin-1-yl)butan-2-yl)-2-((S)-2,2-dimethylcyclopropane-1-carbonyl)-6-thia-2-azaspiro[3.4]octane-8-carboxamide 6,6-dioxide] | > 20 µM
> 10 µM | CNC(=O)[C@@H](NC(=O)[C@H]1CCOC12CN(C(=O)[C@H]1CC1(C)C)C2)[C@@H](C)OCC1CCCCC1 (single isomer, unassigned) [I-35 1st] | > 20 µM
0.1 to 1 µM | CC(=O)N[C@@H](C(=O)NC1CN(C(=O)c2cnn(Cc3ccccc3)c2)CC12CN(C(=O)[C@H]1CC1(C)C)C2)[C@H](C)OCC1CCCCC1 (stereo partly drawn) [Compound I-25, (2R,3S)-2-acetamido-N-(6-(1-benzyl-1H-pyrazole-4-carbonyl)-2-((S)-2,2-dimethylcyclopropane-1-carbonyl)-2,6-diazaspiro[3.4]octan-8-yl)-3-(cyclohexylmethoxy)butanamide] | > 20 µM
> 10 µM | CC1(C)C[C@@H]1C(=O)N1CC2(CN(C(=O)c3cncs3)CC2C#N)C1 (stereo partly drawn) [Compound I-27, 2-((S)-2,2-dimethylcyclopropane-1-carbonyl)-6-(thiazole-5-carbonyl)-2,6-diazaspiro[3.4]octane-8-carbonitrile] | > 20 µM
> 10 µM | CC(=O)N1C[C@@H](C(N)=O)C2(C1)CN(C(C)=O)C2 [Compound I-22, (S)-2,6-diacetyl-2,6-diazaspiro[3.4]octane-8-carboxamide] | > 20 µM
0.1 to 1 µM | CNC(=O)[C@@H](NC(=O)[C@@H]1CN(C(=O)c2cnn(Cc3ccccc3)c2)CC12CN(C(=O)N(C)C1CC1)C2)[C@@H](C)OCC1CCCCC1 [Compound I-30, (S)-6-(1-benzyl-1H-pyrazole-4-carbonyl)-N8-((2S,3R)-3-(cyclohexylmethoxy)-1-(methylamino)-1-oxobutan-2-yl)-N2-cyclopropyl-N2-methyl-2,6-diazaspiro[3.4]octane-2,8-dicarboxamide] | > 20 µM
